The values below come from US10307410B2, “Mcl-1 modulating compounds for cancer treatment” (CENTRE REGIONAL DE LUTTE CONTRE LE CANCER FRANCOIS BACLESSE, priority 2014, dated 2019).

The test deals with SKOV3 chemoresistant ovarian cancer cells. The experiment in a line: Real-time cellular activity by impedancemetry (xCELLigence). The test is classed as cell-based, human. To be noted: SKOV3, 25 μM Pyridoclax + 5 μM ABT-737. As for the experimental part: FIG. 4 represents the effect of the association of Pyridoclax with ABT-737 on chemoresistant ovarian cancer cells IGROV1-R10 (top) and SKOV3 (bottom). Cells were concomitantly (A, E) or sequentially (B) exposed to 25 μM Pyridoclax and 5 μM ABT-737, and cellular effects were assessed either longitudinally (A, B, E) or after 24 h (C, D, F). [A, B, E] real time cellular activity assessed by impedancmetry (xCELLigence technology), after concomitant exposure (A, E) or sequential exposure (B; 24 h Pyridoclax, then ABT-737). [C]: Cellular morphology and DNA content histograms after a 24 h concomitant exposure. [D and F]: PARP and caspase 3 cleavage after a 24 h concomitant exposure.
Compound-mediated cytotoxicity was monitored using Real-Time Cell Analyzer multi-plate (RTCA MP) Instrument, xCELLigence System (Roche Applied Science, Mannheim, Germany). This system monitors cellular events in real time measuring electrical impedance across interdigitated micro-electrodes integrated on the bottom of tissue culture E-plates View (Roche). […] Thus, this index reflects changes in cell viability as described by Ke et al. (2011, Methods Mol Biol 740, 33-43). […] Impedance was continuously measured until the end of the treatment. Standard deviations of well replicates were analyzed with the RTCA Software.

Take `Cc1cc(-c2ncc(-c3cccnc3)cc2/C=C/c2ccccc2)cnc1-c1cccnc1` [Pyridoclax, 5,6′-di(pyridin-3-yl)-5′-methyl-3-((E)-styryl)-2,3′-bipyridine]: the “cellular activity (impedancemetry)” value is reported as “drastically decreased”.
